Laboratory results reported in ChEMBL document CHEMBL4422619, “Continued exploration of 1,2,4-oxadiazole periphery for carbonic anhydrase-targeting primary arene sulfonamides: Discovery of subnanomolar inhibitors of membrane-bound hCA IX isoform that selectively kill cancer cells in hypoxic environment” (Eur J Med Chem, 2019).
Activity calls are given as the source filed them. No cut-off for these calls is given here.

Tests used:
Carbonic anhydrase 9 = Carbonic anhydrase 9 (Homo sapiens, UniProt Q16790)
Description: Inhibition of human carbonic anhydrase 9 assessed as reduction in CO2 hydration after 15 mins by phenol red staining-based stopped flow assay

Carbonic anhydrase 2 = Carbonic anhydrase 2 (Homo sapiens, UniProt P00918); assay: Inhibition of human carbonic anhydrase 2 assessed as reduction in CO2 hydration after 15 mins by phenol red staining-based stopped flow assay
PANC-1 [1] = assay: Antiproliferative activity against human PANC1 cells at 30 to 300 uM after 48 hrs in presence of normoxic condition by MTT assay; format: functional, cell-based
ARPE-19 [2] = assay: Antiproliferative activity against human ARPE19 cells at 30 to 300 uM after 48 hrs in presence of normoxic condition by MTT assay; format: cell-based; conditions: arpe-19, 48 h
ARPE-19 [3] = assay: Antiproliferative activity against human ARPE19 cells at 30 to 300 uM after 48 hrs in presence of hypoxic condition by MTT assay; format: cell-based; conditions: arpe-19, 48 h
PANC-1 [4] = assay: Antiproliferative activity against human PANC1 cells at 30 to 300 uM after 48 hrs in presence of hypoxic condition by MTT assay; format: functional, cell-based
Carbonic anhydrase 12 = Carbonic anhydrase 12 (Homo sapiens, UniProt O43570);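 note: Stopped-flow CO2 hydration assay with phenol red indicator, 15 min, measuring inhibition of human CA XII enzymatic activity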
Chain of Carbonic anhydrase 12 (O43570 whole entry): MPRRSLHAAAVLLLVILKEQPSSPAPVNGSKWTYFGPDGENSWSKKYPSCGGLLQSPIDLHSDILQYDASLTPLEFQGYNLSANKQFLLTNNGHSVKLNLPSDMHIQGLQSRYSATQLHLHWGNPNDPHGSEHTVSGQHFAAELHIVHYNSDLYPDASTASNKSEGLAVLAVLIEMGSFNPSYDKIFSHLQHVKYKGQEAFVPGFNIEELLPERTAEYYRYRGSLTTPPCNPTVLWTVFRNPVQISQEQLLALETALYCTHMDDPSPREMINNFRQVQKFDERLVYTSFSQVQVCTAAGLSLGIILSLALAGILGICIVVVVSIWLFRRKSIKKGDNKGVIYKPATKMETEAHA
Description: Inhibition of human carbonic anhydrase 12 assessed as reduction in CO2 hydration after 15 mins by phenol red staining-based stopped flow assay

Carbonic anhydrase 1 = Carbonic anhydrase 1 (Homo sapiens, UniProt P00915); assay: Inhibition of human carbonic anhydrase 1 assessed as reduction in CO2 hydration after 15 mins by phenol red staining-based stopped flow assay
Chain of Carbonic anhydrase 1 (P00915 whole entry): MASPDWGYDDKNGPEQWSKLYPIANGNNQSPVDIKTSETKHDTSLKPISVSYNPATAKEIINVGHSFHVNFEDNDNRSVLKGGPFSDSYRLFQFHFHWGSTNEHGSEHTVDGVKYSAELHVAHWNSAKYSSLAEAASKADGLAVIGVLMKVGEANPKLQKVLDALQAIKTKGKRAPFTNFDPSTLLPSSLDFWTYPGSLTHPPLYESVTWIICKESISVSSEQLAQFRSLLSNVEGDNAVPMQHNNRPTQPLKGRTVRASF

ARPE-19 [5] = assay: Antiproliferative activity against human ARPE19 cells at 30 uM after 48 hrs in presence of normoxic condition by MTT assay; format: cell-based; conditions: arpe-19, 48 h
ARPE-19 [6] = assay: Antiproliferative activity against human ARPE19 cells at 30 uM after 48 hrs in presence of hypoxic condition by MTT assay; format: cell-based; conditions: arpe-19, 48 h
ARPE-19 [7] = assay: Antiproliferative activity against human ARPE19 cells at 300 uM after 48 hrs in presence of hypoxic condition by MTT assay; format: cell-based; conditions: arpe-19, 48 h
SK-MEL-2 [8] = assay: Antiproliferative activity against human SK-MEL-2 cells at 300 uM after 48 hrs in presence of hypoxic condition by MTT assay; format: functional, cell-based
ARPE-19 [9] = assay: Antiproliferative activity against human ARPE19 cells at 300 uM after 48 hrs in presence of normoxic condition by MTT assay; format: cell-based; conditions: arpe-19, 48 h
SK-MEL-2 [10] = assay: Antiproliferative activity against human SK-MEL-2 cells at 300 uM after 48 hrs in presence of normoxic condition by MTT assay; format: functional, cell-based
SK-MEL-2 [11] = assay: Antiproliferative activity against human SK-MEL-2 cells at 30 uM after 48 hrs in presence of normoxic condition by MTT assay; format: functional, cell-based
SK-MEL-2 [12] = assay: Antiproliferative activity against human SK-MEL-2 cells at 30 uM after 48 hrs in presence of hypoxic condition by MTT assay; format: functional, cell-based
PANC-1 [13] = assay: Antiproliferative activity against human PANC1 cells after 48 hrs in presence of normoxic condition by MTT assay; format: functional, cell-based
PANC-1 [14] = assay: Antiproliferative activity against human PANC1 cells after 48 hrs in presence of hypoxic condition by MTT assay; format: functional, cell-based
PANC-1 [15] = assay: Antiproliferative activity against human PANC1 cells at 300 uM after 48 hrs in presence of normoxic condition by MTT assay; format: functional, cell-based
PANC-1 [16] = assay: Antiproliferative activity against human PANC1 cells at 300 uM after 48 hrs in presence of hypoxic condition by MTT assay; format: functional, cell-based
PANC-1 [17] = assay: Antiproliferative activity against human PANC1 cells at 30 uM after 48 hrs in presence of hypoxic condition by MTT assay; format: functional, cell-based
PANC-1 [18] = assay: Antiproliferative activity against human PANC1 cells at 30 uM after 48 hrs in presence of normoxic condition by MTT assay; format: functional, cell-based
SK-MEL-2 [19] = assay: Antiproliferative activity against human SK-MEL-2 cells after 48 hrs in presence of normoxic condition by MTT assay; format: functional, cell-based
SK-MEL-2 [20] = assay: Antiproliferative activity against human SK-MEL-2 cells after 48 hrs in presence of hypoxic condition by MTT assay; format: functional, cell-based

Ki (Carbonic anhydrase 9) | Ki (Carbonic anhydrase 2) | Ki (Carbonic anhydrase 12) | Ki (Carbonic anhydrase 1) | SMILES | also measured
21.1 nM | 0.51 nM |  |  | COc1ccccc1-c1noc(-c2ccc(S(N)(=O)=O)cc2)n1 | 
 |  |  |  | NS(=O)(=O)c1cccc(-c2noc(C3CC3)n2)c1 | Activity (PANC-1 [1]): Active; Activity (ARPE-19 [2]): Non-Toxic; Activity (ARPE-19 [3]): Non-Toxic; Activity (PANC-1 [4]): Active
243 nM | 0.48 nM |  |  | COc1cccc(-c2noc(-c3ccc(S(N)(=O)=O)cc3)n2)c1 | 
1.6 nM | 0.91 nM | 10.1 nM | 8.1 nM | Cc1nc(-c2csc(S(N)(=O)=O)c2)no1 | 
15.9 nM | 92.1 nM | 32.1 nM | 1160 nM | COc1cc(S(N)(=O)=O)ccc1-c1noc(-c2ccsc2)n1 | 
0.31 nM | 0.93 nM | 9.5 nM | 37.5 nM | NS(=O)(=O)c1ccc(-c2noc(-c3ccccn3)n2)cc1 | 
1.9 nM | 4.1 nM | 97.1 nM | 7.8 nM | NS(=O)(=O)c1ccc(-c2noc(C3CC3)n2)cc1 | 
0.36 nM | 0.39 nM | 8.3 nM | 7.9 nM | NS(=O)(=O)c1ccc(-c2noc(-c3cccs3)n2)cc1 | Activity (PANC-1 [1]): inactive; Activity (ARPE-19 [5]): Non-Toxic; Activity (ARPE-19 [6]): Non-Toxic; Activity (ARPE-19 [7]): Toxic; Activity (SK-MEL-2 [8]): inactive; Activity (ARPE-19 [9]): Toxic; Activity (SK-MEL-2 [10]): inactive; Activity (SK-MEL-2 [11]): inactive; Activity (PANC-1 [4]): inactive; Activity (SK-MEL-2 [12]): inactive
274 nM | 593 nM | 32.9 nM | 779 nM | COc1cc(S(N)(=O)=O)ccc1-c1noc(-c2ccc(C#N)cc2)n1 | 
 |  |  |  | NS(=O)(=O)c1cccc(-c2noc(-c3ccsc3)n2)c1 | Activity (PANC-1 [1]): inactive; Activity (ARPE-19 [5]): Non-Toxic; Activity (ARPE-19 [6]): Non-Toxic; Activity (ARPE-19 [7]): Toxic; Activity (SK-MEL-2 [8]): inactive; Activity (ARPE-19 [9]): Toxic; Activity (SK-MEL-2 [10]): inactive; Activity (SK-MEL-2 [11]): inactive; Activity (PANC-1 [4]): inactive; Activity (SK-MEL-2 [12]): inactive
0.39 nM | 4.3 nM | 8.5 nM | 25 nM | NS(=O)(=O)c1cc(-c2nc(-c3ccccn3)no2)cs1 | Activity (PANC-1 [13]): Dose-dependent effect; Activity (ARPE-19 [5]): Non-Toxic; Activity (ARPE-19 [6]): Non-Toxic; Activity (ARPE-19 [3]): Non-Toxic; Activity (SK-MEL-2 [11]): inactive; Activity (PANC-1 [14]): Dose-dependent effect; Activity (PANC-1 [4]): inactive; Activity (SK-MEL-2 [12]): inactive
12.1 nM | 271 nM | 16.8 nM | 1020 nM | COc1cc(S(N)(=O)=O)ccc1-c1noc(-c2cccnc2)n1 | 
13.1 nM | 8.8 nM | 33.1 nM | 459 nM | COc1cc(S(N)(=O)=O)ccc1-c1noc(-c2ccccc2)n1 | 
0.13 nM | 0.64 nM | 8.8 nM | 16.2 nM | COc1ccccc1-c1noc(-c2csc(S(N)(=O)=O)c2)n1 | 
0.24 nM | 1.7 nM | 9.8 nM | 8.9 nM | NS(=O)(=O)c1cc(-c2nc(-c3ccccc3)no2)cs1 | Activity (ARPE-19 [7]): Toxic; Activity (ARPE-19 [9]): Toxic; Activity (PANC-1 [15]): Active; Activity (PANC-1 [16]): Active
0.089 nM | 0.75 nM | 10.3 nM | 9.3 nM | NS(=O)(=O)c1cc(-c2nc(C3CC3)no2)cs1 | Activity (ARPE-19 [5]): Non-Toxic; Activity (ARPE-19 [6]): Non-Toxic; Activity (PANC-1 [17]): Active; Activity (PANC-1 [18]): Active; Activity (SK-MEL-2 [11]): Active; Activity (SK-MEL-2 [12]): Active
0.44 nM | 0.3 nM | 8.2 nM | 48 nM | NS(=O)(=O)c1ccc(-c2noc(-c3ccncc3)n2)cc1 | 
15.9 nM | 92.1 nM |  |  | COc1cc(S(N)(=O)=O)ccc1-c1noc(-c2cccs2)n1 | 
6.7 nM | 1.8 nM |  |  | NS(=O)(=O)c1ccc(-c2nc(-c3ccccc3)no2)cc1 | 
2.2 nM | 0.82 nM | 33.6 nM | 5.4 nM | COc1cccc(-c2noc(-c3csc(S(N)(=O)=O)c3)n2)c1 | Activity (PANC-1 [1]): Active; Activity (PANC-1 [13]): Dose-dependent effect; Activity (SK-MEL-2 [19]): inactive; Activity (SK-MEL-2 [20]): inactive; Activity (ARPE-19 [2]): Non-Toxic; Activity (ARPE-19 [3]): Non-Toxic; Activity (PANC-1 [14]): Dose-dependent effect; Activity (PANC-1 [4]): Active
2.1 nM | 0.88 nM | 9.2 nM | 53 nM | NS(=O)(=O)c1cc(-c2noc(C3CC3)n2)cs1 | 
